In paper PMC9090415, “Discovery of small molecule inhibitors of Plasmodium falciparum apicoplast DNA polymerase” (Journal of Enzyme Inhibition and Medicinal Chemistry, 2022):

Biological target: P. falciparum apicoplast DNA polymerase (Pf-apPOL) (Plasmodium falciparum, UniProt Q8ILY1)
Test: Fluorescence-based high-throughput DNA polymerase assay (molecular beacon), primary screen and dose-response
Format: biochemical
Procedure: The HT assay employs a molecular beacon, a stem-loop DNA template with a Cy3 dye and the Black Hole Quencher on the 3′ and 5′ ends of the DNA, respectively. Pf-apPOL concentration is based on a calculated absorptivity of ε280 = 56750 M^−1 cm^−1. Reactions were carried out at 25 °C, using Corning 3575 […] (well-volume, 20 µL). Assays testing for compound inhibition composed of reaction buffer (pH 7.9 in 50 mM potassium acetate, 20 mM Tris-acetate and 10 mM magnesium acetate), Pf-apPOL (20 nM), DNA substrate (20 nM), dNTPs (6 µM), and compound (10 µM in DMSO). The DNA and nucleotide substrates (dNTPs) were at concentrations of 20 nM and 6 µM, respectively, in the assay. Pf-apPOL was incubated in the reaction buffer with dNTPs and the compound of interest (10 µM, in the assay) at 25 °C for 10 min. The DNA substrate was then added and the reaction was allowed to proceed for 90 min at 25 °C.
Each assay plate contained 16 negative controls (no Pf-apPOL, DMSO present) and 16 positive controls (Pf-apPOL present, no DMSO). The fluorescence of each well was determined using a BioTek Synergy Neo fluorescence plate reader using excitation and emission wavelengths of 555 and 570 nm, respectively.
In the above, Min is the average of fluorescence emission of the negative controls (substrate only), Max the average fluorescence emission from the positive controls (enzyme + substrate), and Test the emission from the assays in the presence of compounds (enzyme + compound + substrates). […] […] The IC50 of each compound was determined using Equation (2): (2) IC50= Vmax/(1+ (I/IC50)^n)
In the above, n measures cooperativity, with n > 1 indicating synergistic binding of more than a single molecule of the compound.
To identify apPOL inhibitors we utilised our previously developed high-throughput DNA polymerase assay. The HT assay is based on a molecular beacon DNA template that forms a stem-loop with a Cy3 dye and the Black Hole Quencher on the 3′ and 5′ ends of the DNA, respectively. DNA polymerase activity extends an annealed primer through the stem region, displacing the fluorophore from the quencher, thereby increasing its fluorescence (Figure 1(A)). The assay accurately recapitulates the kinetic behaviour of apPOL, as measured through more conventional low-throughput gel-based assays. The Z′ factor for the assay described here was 0.9 across all plates (data not shown).
Figure 1. High-throughput screening. (A) The fluorescent-based DNA polymerase assay used to screen the compound libraries. The DNA template strand is a hairpin loop with a primer annealed to the loop. The 3’ end of the primer is 11 bases away from the 6 bp duplex. Strand displacement activity of the DNA polymerase separates the Cy3 dye from the Black hole quencher leading to an increase in fluorescent signal. (B) The high-throughput assay workflow. The DNA polymerase is incubated with […] compound for 10 min prior to addition of the hairpin substrate. The reaction is quenched at 3 different time points and the fluorescent signal is measured and % inhibition is determined using the provided equation.

Chain of P. falciparum apicoplast DNA polymerase (Pf-apPOL) (Q8ILY1 entry or part of it): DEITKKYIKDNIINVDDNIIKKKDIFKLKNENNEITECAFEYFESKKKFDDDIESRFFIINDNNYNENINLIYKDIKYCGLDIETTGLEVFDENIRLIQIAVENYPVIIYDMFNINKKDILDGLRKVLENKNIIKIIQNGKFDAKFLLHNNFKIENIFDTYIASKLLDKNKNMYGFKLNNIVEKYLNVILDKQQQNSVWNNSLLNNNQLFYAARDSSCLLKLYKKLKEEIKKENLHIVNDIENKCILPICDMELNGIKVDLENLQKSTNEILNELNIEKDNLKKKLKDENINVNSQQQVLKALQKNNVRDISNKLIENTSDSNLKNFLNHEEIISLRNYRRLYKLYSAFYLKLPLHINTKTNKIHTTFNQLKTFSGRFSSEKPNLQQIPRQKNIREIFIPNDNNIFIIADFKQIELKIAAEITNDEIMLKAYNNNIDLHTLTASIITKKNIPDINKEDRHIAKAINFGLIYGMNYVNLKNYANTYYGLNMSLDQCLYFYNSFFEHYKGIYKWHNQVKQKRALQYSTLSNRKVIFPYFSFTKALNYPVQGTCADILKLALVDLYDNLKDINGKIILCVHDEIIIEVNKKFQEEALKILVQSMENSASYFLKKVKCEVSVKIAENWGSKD

## CSC1=C(C#N)C(=C(C#N)C#N)NC(c2ccccc2)=N1 [Molecule 2, CSc1nc([nH]c(=C(C#N)C#N)c1C#N)c1ccccc1]
'DNA Pol' of the 186 hits list (primary screen result); unit not given; 90 min, 10 µM
  DNA Pol: 97
DRC-1; 10'; concentration 2.5
  % inhibition Apo pol 10': 13.8022%
DRC-1; 10'; concentration 5
  % inhibition Apo pol 10': 41.8918%
DRC-1; 10'; concentration 10
  % inhibition Apo pol 10': 81.1404%
DRC-1; 10'; concentration 20
  % inhibition Apo pol 10': 90.9481%
DRC-1; 10'; concentration 40
  % inhibition Apo pol 10': 95.8628%
DRC-1; 10'; concentration 80
  % inhibition Apo pol 10': 96.566%
DRC-1; 90'; concentration 2.5
  % inhibition Apol 90': 8.793%
DRC-1; 90'; concentration 5
  % inhibition Apol 90': 34.1727%
DRC-1; 90'; concentration 10
  % inhibition Apol 90': 79.1809%
DRC-1; 90'; concentration 20
  % inhibition Apol 90': 88.8682%
DRC-1; 90'; concentration 40
  % inhibition Apol 90': 93.6444%
DRC-1; 90'; concentration 80
  % inhibition Apol 90': 97.3798%
DRC-1; 180'; concentration 2.5
  % inhibition apPOL 180': 3.214%
DRC-1; 180'; concentration 5
  % inhibition apPOL 180': 23.1824%
DRC-1; 180'; concentration 10
  % inhibition apPOL 180': 72.8695%
DRC-1; 180'; concentration 20
  % inhibition apPOL 180': 86.4873%
DRC-1; 180'; concentration 40
  % inhibition apPOL 180': 92.4303%
DRC-1; 180'; concentration 80
  % inhibition apPOL 180': 97.316%
DRC-2; 5'; concentration 2.5
  % inhibition Apo pol 5': 8%
DRC-2; 5'; concentration 5
  % inhibition Apo pol 5': 21%
DRC-2; 5'; concentration 10
  % inhibition Apo pol 5': 38%
DRC-2; 5'; concentration 20
  % inhibition Apo pol 5': 53%
DRC-2; 5'; concentration 40
  % inhibition Apo pol 5': 57%
DRC-2; 5'; concentration 80
  % inhibition Apo pol 5': 60%
DRC-2; 40'; concentration 5
  % inhibition Apol 40': 25%
DRC-2; 40'; concentration 10
  % inhibition Apol 40': 47%
DRC-2; 40'; concentration 20
  % inhibition Apol 40': 65%
DRC-2; 40'; concentration 40
  % inhibition Apol 40': 69%
DRC-2; 40'; concentration 80
  % inhibition Apol 40': 76%
DRC-2; 90'; concentration 2.5
  % inhibition ApPOL 90': 9%
DRC-2; 90'; concentration 5
  % inhibition ApPOL 90': 22%
DRC-2; 90'; concentration 10
  % inhibition ApPOL 90': 46%
DRC-2; 90'; concentration 20
  % inhibition ApPOL 90': 66%
DRC-2; 90'; concentration 40
  % inhibition ApPOL 90': 70%
DRC-2; 90'; concentration 80
  % inhibition ApPOL 90': 79%
DRC-2; 180'; concentration 2.5
  % inhibition apPOL 180': 2.48%
DRC-2; 180'; concentration 5
  % inhibition apPOL 180': 13%
DRC-2; 180'; concentration 10
  % inhibition apPOL 180': 36%
DRC-2; 180'; concentration 20
  % inhibition apPOL 180': 61%
DRC-2; 180'; concentration 40
  % inhibition apPOL 180': 67%
DRC-2; 180'; concentration 80
  % inhibition apPOL 180': 80%
Primary screen value of the library well; unit not given; 90 min, 10 µM
  DNA Pol: 97

## O=[N+]([O-])c1ccc(SCc2ccco2)c2cccnc12 [KU0034480]
DRC-1; concentration 2.5; 10'
  % inhibition Apo pol 10': 15.1764%
DRC-1; concentration 2.5; 90'
  % inhibition Apol 90': 4.148%
DRC-1; concentration 2.5; 180'
  % inhibition apPOL 180': -3.317%
DRC-1; concentration 5; 10'
  % inhibition Apo pol 10': 32.9023%
DRC-1; concentration 5; 90'
  % inhibition Apol 90': 16.0357%
DRC-1; concentration 5; 180'
  % inhibition apPOL 180': 6.603%
DRC-1; concentration 10; 10'
  % inhibition Apo pol 10': 55.3292%
DRC-1; concentration 10; 90'
  % inhibition Apol 90': 36.0729%
DRC-1; concentration 10; 180'
  % inhibition apPOL 180': 23.8373%
DRC-1; concentration 20; 10'
  % inhibition Apo pol 10': 73.1419%
DRC-1; concentration 20; 90'
  % inhibition Apol 90': 49.2841%
DRC-1; concentration 20; 180'
  % inhibition apPOL 180': 26.1748%
DRC-1; concentration 40; 10'
  % inhibition Apo pol 10': 89.7276%
DRC-1; concentration 40; 90'
  % inhibition Apol 90': 77.8644%
DRC-1; concentration 40; 180'
  % inhibition apPOL 180': 65.2989%
DRC-1; concentration 80 (unit not given); 10'
  % inhibition Apo pol 10': 92.5619%
DRC-1; concentration 80; 90'
  % inhibition Apol 90': 91.6594%
DRC-1; concentration 80; 180'
  % inhibition apPOL 180': 89.7624%
DRC-2; 5'; concentration 2.5
  % inhibition Apo pol 5': 33%
DRC-2; 5'; concentration 5
  % inhibition Apo pol 5': 33%
DRC-2; 40'; concentration 5
  % inhibition Apol 40': 33%
DRC-2; 90'; concentration 40
  % inhibition ApPOL 90': 75%
DRC-2; 180'; concentration 40
  % inhibition apPOL 180': 75%
DRC-2; 180'; concentration 80
  % inhibition apPOL 180': 75%
DRC-2; concentration 2.5; 5'
  % inhibition Apo pol 5': 33%
DRC-2; concentration 2.5; 40'
  % inhibition Apol 40': 40%
DRC-2; concentration 2.5; 90'
  % inhibition ApPOL 90': 36%
DRC-2; concentration 2.5; 180'
  % inhibition apPOL 180': 26%
DRC-2; concentration 5; 5'
  % inhibition Apo pol 5': 33%
DRC-2; concentration 5; 40'
  % inhibition Apol 40': 33%
DRC-2; concentration 5; 90'
  % inhibition ApPOL 90': 29%
DRC-2; concentration 5; 180'
  % inhibition apPOL 180': 16%
DRC-2; concentration 10; 5'
  % inhibition Apo pol 5': 38%
DRC-2; concentration 10; 40'
  % inhibition Apol 40': 39%
DRC-2; concentration 10; 90'
  % inhibition ApPOL 90': 35%
DRC-2; concentration 10; 180'
  % inhibition apPOL 180': 22%
DRC-2; concentration 20; 5'
  % inhibition Apo pol 5': 47%
DRC-2; concentration 20; 40'
  % inhibition Apol 40': 63%
DRC-2; concentration 20; 90'
  % inhibition ApPOL 90': 62%
DRC-2; concentration 20; 180'
  % inhibition apPOL 180': 53%
DRC-2; concentration 40; 5'
  % inhibition Apo pol 5': 48%
DRC-2; concentration 40; 40'
  % inhibition Apol 40': 72%
DRC-2; concentration 40; 90'
  % inhibition ApPOL 90': 75%
DRC-2; concentration 40; 180'
  % inhibition apPOL 180': 75%
DRC-2; concentration 80; 5'
  % inhibition Apo pol 5': 13%
DRC-2; concentration 80; 40'
  % inhibition Apol 40': 57%
DRC-2; concentration 80; 90'
  % inhibition ApPOL 90': 66%
DRC-2; concentration 80; 180'
  % inhibition apPOL 180': 75%
Primary screen value of the 186 hits; unit not given; 90 min, 10 µM
  DNA Pol: 42
Primary screen value; head prints only 'DNA Pol'; 90 min, 10 µM
  DNA Pol: 42
